From US20240190860A1, “8-CYCLO-SUBSTITUTED QUINAZOLINE DERIVATIVES AS LPA RECEPTOR 2 INHIBITORS” (CHIESI FARMACEUTICI S.p.A., priority 2021, published 2024)

Molecular target: T1, human recombinant LPA2 expressed in CHO cells (Homo sapiens, UniProt Q9HBW0)
T1 construct: expressed in transfected cells; host or cells: CHO cells (CHO-hLPA2 cell line)
Experiment: FLIPR calcium mobilization assay, LPA2 antagonism in CHO-hLPA2 cells
Assay type: cell-based
Details: CHO-hLPA2 cells, inhibition of LPA EC80 Ca2+ response, 30 min pre-incubation; read-out: LPA2 IC50
Method in brief: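 Antagonist potency from four-parameter logistic fit (pIC50) of % inhibition of peak Ca2+ signal evoked by an EC80 LPA challenge. Before challenge, hLPA2-CHO cells were dye-loaded (5 μM Cal-520 AM, 2.5 mM probenecid, pH 7.4 HEPES buffer, 30 min, 37° C) and exposed 30 min to compound at 11 concentrations, 0.5% DMSO final.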

T1 sequence (Q9HBW0 whole entry): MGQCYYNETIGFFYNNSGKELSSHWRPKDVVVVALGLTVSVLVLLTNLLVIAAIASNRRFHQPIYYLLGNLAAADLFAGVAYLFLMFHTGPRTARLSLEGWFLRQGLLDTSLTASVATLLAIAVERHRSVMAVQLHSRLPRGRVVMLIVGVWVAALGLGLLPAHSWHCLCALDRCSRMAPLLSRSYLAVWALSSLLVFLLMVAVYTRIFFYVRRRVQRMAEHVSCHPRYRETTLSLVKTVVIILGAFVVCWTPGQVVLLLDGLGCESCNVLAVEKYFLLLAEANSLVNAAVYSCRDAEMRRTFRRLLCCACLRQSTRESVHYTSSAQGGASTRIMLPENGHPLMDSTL

Cc1cc(-c2cc(S(=O)(=O)N3CCN(C[C@H](C)Nc4ncnc5c(-c6cccc(CN(C)C)c6)cccc45)CC3)cs2)on1 [Example 93, 8-{3-[(dimethylamino)methyl]phenyl}-N-[(2S)-1-(4-{[5-(3-methyl-1,2-oxazol-5-yl)thiophen-3-yl]sulfonyl}piperazin-1-yl)propan-2-yl]quinazolin-4-amine]
IC50: < 10 nM

C[C@@H](CN1CCN(S(=O)(=O)c2ccc3c(c2)sc(=O)n3C)CC1)Nc1ncnc2c(-c3cccnc3)cccc12 [Example 94, 3-methyl-6-({4-[(2S)-2-{[8-(pyridin-3-yl)quinazolin-4-yl]amino}propyl]piperazin-1-yl}sulfonyl)-2,3-dihydro-1,3-benzothiazol-2-one]
IC50: 10 to 100 nM

COC(=O)Nc1nc(C)c(S(=O)(=O)N2CCN(C[C@H](C)Nc3ncnc4c(-c5cc(C)ncn5)cccc34)CC2)s1 [Example 95, methyl N-[4-methyl-5-({4-[(2S)-2-{[8-(6-methylpyrimidin-4-yl)quinazolin-4-yl]amino}propyl]piperazin-1-yl}sulfonyl)-1,3-thiazol-2-yl]carbamate]
IC50: 10 to 100 nM

C[C@@H](CN1CCN(S(=O)(=O)c2ccc3c(c2)sc(=O)n3C)CC1)Nc1ncnc2c(-c3ccc(F)c(CN(C)C)c3)cccc12 [Example 96, 6-({4-[(2S)-2-[(8-{3-[(dimethylamino)methyl]-4-fluorophenyl}quinazolin-4-yl)amino]propyl]piperazin-1-yl}sulfonyl)-3-methyl-2,3-dihydro-1,3-benzothiazol-2-one]
IC50: < 10 nM

C[C@@H](CN1CCN(S(=O)(=O)c2ccc3[nH]c(=O)sc3c2)CC1)Nc1ncnc2c(-c3ccc(F)c(CN(C)C)c3)cccc12 [Example 97, 6-({4-[(2S)-2-[(8-{3-[(dimethylamino)methyl]-4-fluorophenyl}quinazolin-4-yl)amino]propyl]piperazin-1-yl}sulfonyl)-2,3-dihydro-1,3-benzothiazol-2-one]
IC50: < 10 nM

Cc1nc(C)c(-c2cccc3c(N[C@@H](C)CN4CCN(S(=O)(=O)c5ccc6[nH]c(=O)sc6c5)CC4)ncnc23)s1 [Example 98, 6-({4-[(2S)-2-{[8-(2,4-dimethyl-1,3-thiazol-5-yl)quinazolin-4-yl]amino}propyl]piperazin-1-yl}sulfonyl)-2,3-dihydro-1,3-benzothiazol-2-one]
IC50: < 10 nM

Cc1ccc(-c2cccc3c(N[C@@H](C)CN4CCN(S(=O)(=O)c5ccc6nc(C)sc6c5)CC4)ncnc23)cn1 [Example 99, N-[(2S)-1-{4-[(2-methyl-1,3-benzothiazol-6-yl)sulfonyl]piperazin-1-yl}propan-2-yl]-8-(6-methylpyridin-3-yl)quinazolin-4-amine]
IC50: 10 to 100 nM

Cc1ccc(-c2cccc3c(N[C@@H](C)CN4CCN(S(=O)(=O)c5ccc6c(c5)sc(=O)n6C)CC4)ncnc23)cn1 [Example 100, 3-methyl-6-({4-[(2S)-2-{[8-(6-methylpyridin-3-yl)quinazolin-4-yl]amino}propyl]piperazin-1-yl}sulfonyl)-2,3-dihydro-1,3-benzothiazol-2-one]
IC50: 10 to 100 nM

COC(=O)Nc1nc(C)c(S(=O)(=O)N2CCN(C[C@H](C)Nc3ncnc4c(-c5c(C)nn(CCN(C)C)c5C)cccc34)CC2)s1 [Example 101, methyl N-[5-({4-[(2S)-2-[(8-{1-[2-(dimethylamino)ethyl]-3,5-dimethyl-1H-pyrazol-4-yl}quinazolin-4-yl)amino]propyl]piperazin-1-yl}sulfonyl)-4-methyl-1,3-thiazol-2-yl]carbamate]
IC50: < 10 nM

COC(=O)Nc1nc(C)c(S(=O)(=O)N2CCN(C[C@H](C)Nc3ncnc4c(-c5cn(CCN(C)C)nc5C(F)(F)F)cccc34)CC2)s1 [Example 102, methyl N-[5-({4-[(2S)-2-[(8-{1-[2-(dimethylamino)ethyl]-3-(trifluoromethyl)-1H-pyrazol-4-yl}quinazolin-4-yl)amino]propyl]piperazin-1-yl}sulfonyl)-4-methyl-1,3-thiazol-2-yl]carbamate]
IC50: < 10 nM
